Data taken from US11339128B2 (Firmenich Incorporated, priority 2014, dated 2022).

Molecular target: T1, T1R2/T1R3 taste receptor (Homo sapiens, UniProt Q7RTX0+Q8TE23)
T1 sequence (Q8TE23 20-839): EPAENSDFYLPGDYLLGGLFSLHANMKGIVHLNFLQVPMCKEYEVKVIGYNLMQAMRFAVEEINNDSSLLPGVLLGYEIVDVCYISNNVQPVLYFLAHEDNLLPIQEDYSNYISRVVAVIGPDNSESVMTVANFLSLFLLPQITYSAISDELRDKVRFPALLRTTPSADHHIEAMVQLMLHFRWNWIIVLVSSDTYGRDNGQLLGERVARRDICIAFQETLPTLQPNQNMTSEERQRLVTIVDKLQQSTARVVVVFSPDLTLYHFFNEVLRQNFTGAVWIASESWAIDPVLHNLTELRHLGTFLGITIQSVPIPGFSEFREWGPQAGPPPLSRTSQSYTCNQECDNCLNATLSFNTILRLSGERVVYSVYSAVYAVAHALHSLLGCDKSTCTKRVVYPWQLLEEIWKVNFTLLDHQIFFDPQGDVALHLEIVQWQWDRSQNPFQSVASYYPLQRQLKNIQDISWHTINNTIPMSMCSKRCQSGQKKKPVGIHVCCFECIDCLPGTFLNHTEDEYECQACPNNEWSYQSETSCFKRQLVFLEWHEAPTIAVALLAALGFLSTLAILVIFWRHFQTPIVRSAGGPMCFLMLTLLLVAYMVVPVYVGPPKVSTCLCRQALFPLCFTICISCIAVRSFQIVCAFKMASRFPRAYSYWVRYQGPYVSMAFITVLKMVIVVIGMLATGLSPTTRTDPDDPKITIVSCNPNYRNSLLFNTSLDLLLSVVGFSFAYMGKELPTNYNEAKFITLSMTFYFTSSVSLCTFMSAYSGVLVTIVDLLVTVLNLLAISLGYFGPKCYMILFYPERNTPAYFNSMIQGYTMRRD
T1 sequence (Q7RTX0 21-852): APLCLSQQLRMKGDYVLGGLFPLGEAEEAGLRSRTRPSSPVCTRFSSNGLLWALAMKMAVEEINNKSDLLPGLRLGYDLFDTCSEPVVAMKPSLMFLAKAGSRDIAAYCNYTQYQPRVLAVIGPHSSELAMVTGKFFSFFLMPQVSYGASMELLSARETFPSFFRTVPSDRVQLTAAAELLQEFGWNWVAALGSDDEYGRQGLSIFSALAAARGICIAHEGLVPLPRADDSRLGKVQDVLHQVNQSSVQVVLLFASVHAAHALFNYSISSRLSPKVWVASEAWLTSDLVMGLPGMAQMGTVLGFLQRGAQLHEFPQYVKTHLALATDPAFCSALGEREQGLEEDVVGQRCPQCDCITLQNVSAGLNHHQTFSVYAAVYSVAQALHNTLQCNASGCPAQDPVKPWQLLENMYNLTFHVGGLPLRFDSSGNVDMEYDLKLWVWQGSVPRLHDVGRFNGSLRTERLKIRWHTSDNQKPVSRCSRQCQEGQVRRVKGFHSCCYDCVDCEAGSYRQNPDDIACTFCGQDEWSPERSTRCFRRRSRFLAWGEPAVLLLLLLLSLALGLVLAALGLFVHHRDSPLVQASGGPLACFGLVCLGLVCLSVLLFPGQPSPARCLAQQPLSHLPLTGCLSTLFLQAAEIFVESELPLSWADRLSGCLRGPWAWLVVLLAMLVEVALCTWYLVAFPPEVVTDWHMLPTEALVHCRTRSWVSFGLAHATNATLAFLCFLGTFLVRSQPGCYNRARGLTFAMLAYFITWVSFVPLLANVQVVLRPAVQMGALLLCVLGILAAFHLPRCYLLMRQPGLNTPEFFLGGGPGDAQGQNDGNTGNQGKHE
Assay: Receptor-based assay: sweetener EC50 enhancement ratio with and without test compound
Assay type: cell-based
Details: for Sucrose Enhancement EC50 Ratio: sweetener sucrose; for Fructose Enhancement EC50 Ratio: sweetener fructose; for Sucralose Enhancement EC50 Ratio: sweetener sucralose
Experimental: Potencies (EC50 values) for the sweeteners sucrose, sucralose, and fructose were measured against the T1R2/T1R3 taste receptor. EC50 was determined using the sweetener alone and in the presence of 1 μM, 3 μM, 10 μM, or 50 μM of test compound. EC50 ratios were calculated by the ratio of potency with and without the test compound. An “A” value indicates an enhancement ratio of greater than 1 and less than 10. A “B” value indicates an enhancement ratio from 10 to 20. A “C” value indicates an enhancement ratio greater than 20.

SMILES	Sucrose Enhancement EC50 Ratio (1 μM test compound)	Sucrose Enhancement EC50 Ratio (3 μM test compound)	Fructose Enhancement EC50 Ratio (10 μM test compound)	Sucralose Enhancement EC50 Ratio (10 μM test compound)	Sucrose Enhancement EC50 Ratio (10 μM test compound)	Fructose Enhancement EC50 Ratio (50 μM test compound)	Sucralose Enhancement EC50 Ratio (3 μM test compound)
CNC(C)(C)C(=O)N[C@H]1CC[C@H](Oc2cccc3nc(C)c(C(=O)O)c(N)c23)CC1 [Compound 501]	A (an enhancement ratio of greater than 1 and less than 10)	A (an enhancement ratio of greater than 1 and less than 10)	A (an enhancement ratio of greater than 1 and less than 10)	B (an enhancement ratio from 10 to 20)	A (an enhancement ratio of greater than 1 and less than 10)	A (an enhancement ratio of greater than 1 and less than 10)	–
CCOCC(=O)NC[C@H]1CC[C@H](Oc2cccc3nc(C)c(C(=O)O)c(N)c23)CC1 [Compound 603]	A (an enhancement ratio of greater than 1 and less than 10)	C (an enhancement ratio greater than 20)	–	C (an enhancement ratio greater than 20)	C (an enhancement ratio greater than 20)	–	–
COCC(=O)N[C@H]1CC[C@H](Oc2cccc3nc(C)c(C(=O)O)c(N)c23)CC1 [Compound 304]	A (an enhancement ratio of greater than 1 and less than 10)	B (an enhancement ratio from 10 to 20)	–	–	A (an enhancement ratio of greater than 1 and less than 10)	–	–
Cc1nc2cccc(O[C@H]3CC[C@H](NC(=O)COCCO)CC3)c2c(N)c1C(=O)O [Compound 334]	A (an enhancement ratio of greater than 1 and less than 10)	A (an enhancement ratio of greater than 1 and less than 10)	A (an enhancement ratio of greater than 1 and less than 10)	–	C (an enhancement ratio greater than 20)	–	–
CCCc1nc2cccc(O[C@H]3CC[C@H](C)CC3)c2c(N)c1C(=O)O [Compound 207]	A (an enhancement ratio of greater than 1 and less than 10)	A (an enhancement ratio of greater than 1 and less than 10)	–	–	A (an enhancement ratio of greater than 1 and less than 10)	–	–
CCc1nc2cccc(O[C@H]3CC[C@@H](C)CC3)c2c(N)c1C(=O)O [Compound 202]	A (an enhancement ratio of greater than 1 and less than 10)	A (an enhancement ratio of greater than 1 and less than 10)	–	–	A (an enhancement ratio of greater than 1 and less than 10)	–	–
Cc1nc2cccc(O[C@H]3CC[C@H](NC(=O)COC(C)(C)C)CC3)c2c(N)c1C(=O)O [Compound 308]	B (an enhancement ratio from 10 to 20)	–	–	–	–	–	–
Cc1nc2cccc(O[C@H]3CC[C@H](NC(=O)C4CCC4)CC3)c2c(N)c1C(=O)O [Compound 320]	A (an enhancement ratio of greater than 1 and less than 10)	B (an enhancement ratio from 10 to 20)	–	B (an enhancement ratio from 10 to 20)	B (an enhancement ratio from 10 to 20)	–	–
Cc1nc2cccc(O[C@H]3CC[C@H](NC(=O)CO)CC3)c2c(N)c1C(=O)O [Compound 303]	A (an enhancement ratio of greater than 1 and less than 10)	A (an enhancement ratio of greater than 1 and less than 10)	–	A (an enhancement ratio of greater than 1 and less than 10)	B (an enhancement ratio from 10 to 20)	–	–
Cc1cc(N[C@H]2CC[C@H](Oc3cccc4nc(C)c(C(=O)O)c(N)c34)CC2)nc(N)n1 [Compound 712]	A (an enhancement ratio of greater than 1 and less than 10)	B (an enhancement ratio from 10 to 20)	A (an enhancement ratio of greater than 1 and less than 10)	C (an enhancement ratio greater than 20)	C (an enhancement ratio greater than 20)	A (an enhancement ratio of greater than 1 and less than 10)	B (an enhancement ratio from 10 to 20)
CCc1cnc(N[C@H]2CC[C@H](Oc3cccc4nc(C)c(C(=O)O)c(N)c34)CC2)nc1 [Compound 711]	A (an enhancement ratio of greater than 1 and less than 10)	A (an enhancement ratio of greater than 1 and less than 10)	A (an enhancement ratio of greater than 1 and less than 10)	B (an enhancement ratio from 10 to 20)	B (an enhancement ratio from 10 to 20)	A (an enhancement ratio of greater than 1 and less than 10)	B (an enhancement ratio from 10 to 20)
Cc1nc2cccc(O[C@H]3CC[C@H](NC(=O)COCC4CCOCC4)CC3)c2c(N)c1C(=O)O [Compound 339]	A (an enhancement ratio of greater than 1 and less than 10)	B (an enhancement ratio from 10 to 20)	–	–	–	–	–
Cc1nc2cccc(O[C@H]3CC[C@H](CO)CC3)c2c(N)c1C(=O)O [Compound 109]	B (an enhancement ratio from 10 to 20)	C (an enhancement ratio greater than 20)	–	–	C (an enhancement ratio greater than 20)	–	–
Cc1nc2cccc(O[C@H]3CC[C@@H](C)CC3)c2c(N)c1C(=O)O [Compound 102]	A (an enhancement ratio of greater than 1 and less than 10)	A (an enhancement ratio of greater than 1 and less than 10)	–	–	B (an enhancement ratio from 10 to 20)	–	–
Cc1cnc(N[C@H]2CC[C@H](Oc3cccc4nc(C)c(C(=O)O)c(N)c34)CC2)nc1 [Compound 705]	A (an enhancement ratio of greater than 1 and less than 10)	B (an enhancement ratio from 10 to 20)	A (an enhancement ratio of greater than 1 and less than 10)	B (an enhancement ratio from 10 to 20)	B (an enhancement ratio from 10 to 20)	–	A (an enhancement ratio of greater than 1 and less than 10)
CO[C@H]1CC[C@@H](Oc2cccc3nc(C)c(C(=O)O)c(N)c23)CC1 [Compound 106]	A (an enhancement ratio of greater than 1 and less than 10)	A (an enhancement ratio of greater than 1 and less than 10)	–	–	A (an enhancement ratio of greater than 1 and less than 10)	–	–
CN[C@H](C(=O)N[C@H]1CC[C@H](Oc2cccc3nc(C)c(C(=O)O)c(N)c23)CC1)C(C)C [Compound 503]	A (an enhancement ratio of greater than 1 and less than 10)	A (an enhancement ratio of greater than 1 and less than 10)	A (an enhancement ratio of greater than 1 and less than 10)	B (an enhancement ratio from 10 to 20)	A (an enhancement ratio of greater than 1 and less than 10)	A (an enhancement ratio of greater than 1 and less than 10)	–
